For one molecule, IC50 and inhibition results are on record in ChEMBL document CHEMBL1149090, “Synthesis of a potent transition-state inhibitor of 5'-deoxy-5'-methylthioadenosine phosphorylase” (J Med Chem, 2004).

The target in assay [1] is T1, S-methyl-5'-thioadenosine phosphorylase (Homo sapiens, UniProt Q13126).
T1 sequence (Q13126 whole entry): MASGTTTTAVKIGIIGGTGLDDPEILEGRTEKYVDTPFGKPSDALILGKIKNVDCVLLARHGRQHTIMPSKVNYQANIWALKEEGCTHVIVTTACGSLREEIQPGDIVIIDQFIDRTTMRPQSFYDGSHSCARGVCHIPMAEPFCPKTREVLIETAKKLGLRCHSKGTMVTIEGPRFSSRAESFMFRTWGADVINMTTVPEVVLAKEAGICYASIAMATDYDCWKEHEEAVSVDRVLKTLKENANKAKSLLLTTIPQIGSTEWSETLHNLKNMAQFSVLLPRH
The experiment in a line: Inhibitory concentration against Methylthioadenosine phosphorylase.

Assay [2] concerns MOLT-4. The experiment in a line: Tested for inhibition of MOLT-4 cells proliferation in the presence of 100 nM methotrexate and 10 uM of the compound; not significant. It is filed as functional, cell-based. To be noted: Homo sapiens.
The test system of assay [3] is MOLT-4. As to the kind of experiment: Tested for inhibition of MOLT-4 cells proliferation up to 10 uM; No Inhibition. It is filed as functional, cell-based. As to conditions: Homo sapiens.
The subject of assay [4] is MOLT-4. As to the kind of experiment: Tested for inhibition of MOLT-4 cells proliferation in the presence of 3 uM MTA. It is filed as functional, cell-based. To be noted: Homo sapiens.

Calls of active or inactive are those of the source. The rule behind the calls is not given here.

The IC50 is the concentration that gives 50% inhibition.

As for `CSC[C@H]1N[C@@H](c2c[nH]c3c(N)ncnc23)[C@H](O)[C@@H]1O`, the IC50 in assay [1] is 1.2 nM; in the assay on MOLT-4 [4], 1000 nM. Further, the inhibition result with MOLT-4 [2] and in the assay with MOLT-4 [3] was “inactive” each time.
